Reference: patent publication US3968207A, “Method of controlling fleas and ticks on cats and dogs” (priority 1975, dated 1976)
“And” between values parts separate entries of the source, which are not always exact repeats. Equal entries are not always repeated.

Columns and labels:
[1] = test system: Ctenocephalides felis; assay: Flea control on dogs given oral doses (gelatin capsules), Table III; assay type: in vivo; set-up: key to Flea Control: 100% Control; PC: Partial Control; NC: No Control
Description: Five groups of two mongrel dogs each were dosed daily with 0, 0.78, 3.1, 12.5 or 50 mg. O,O,O',O'-tetramethyl O,O'-thiodi-p-phenylene phosphorothioate/kg. body weight in gelatin capsules for 10 days. Medication began three days after infestations with 100 adult Ctenocephalides felis. […] Purina High Protein Dog Meal was fed once daily for the duration of the experiment. Water was provided ad libitum. The following table summarizes the results of the test.

[2] = test system: Ctenocephalides felis; assay: 2% powder for control of flea infestations on dogs; assay type: in vivo; conditions: for Percent of Dogs with Control / Number of Dogs on Which Fleas were Controlled: 20 mg/kg 2% powder; for Average Dead in Treated / No. of Dead Fleas Recovered in 48 Hrs.: 20 mg/kg; for No. of Dead Fleas Recovered in 48 Hrs.: Trial 1, individual dogs
Description: An experiment was carried out to determine the activity of O,O,O',O'-tetramethyl O,O'-thiodi-p-phenylene phosphorothioate 2% powder for the control of Ctenocephalides felis infestations on dogs. A group of 40 dogs of mixed breeds were obtained from a licensed laboratory animal dealer and housed in individual cages. The 2% powder was formulated from a 25% dust concentrate containing […] O,O,O',O'-tetramethyl O,O'-thiodi-p-phenylene phosphorothioate, 24% celite 209 and 50% acidic kaolin. Talc was used to dilute the concentrate to 2% active ingredient. Each dog was infested with 100 1 day old adult C. felis 72 hours prior to treatment and reinfested on a weekly basis for 6 weeks beginning 7 days after treatment. Each dog was treated with 20 mg. actual drug per kg. body weight formulated as a 2% powder. Five or more dogs were treated with a blank powder and used as infested controls. Table XV summarizes average dead fleas in treated versus average dead fleas in control.

[3] = Toxicity (general statement); assay type: in vivo, dogs and cats; conditions: at concentrations many times that of the actual amounts employed

## COP(=S)(OC)Oc1ccc(Sc2ccc(OP(=S)(OC)OC)cc2)cc1 [O,O,O',O'-tetramethyl O,O'-thiodi-p-phenylene phosphorothioate]
[1]; oral 0.78 mg/kg
  flea activity: no flea activity was observed
[1]; oral 3.1 mg/kg daily, day 0
  Flea Control: NC
[1]; oral 3.1 mg/kg daily, day 1
  Flea Control: NC
[1]; oral 3.1 mg/kg daily, day 2
  Flea Control: NC
[1]; oral 3.1 mg/kg daily, day 3
  Flea Control: PC
[1]; oral 3.1 mg/kg daily, day 4
  Flea Control: PC
[1]; oral 3.1 mg/kg daily, day 7
  Flea Control: 100 (100% Control)
[1]; oral 3.1 mg/kg, both dogs, after 7 days
  Flea Control: complete control
[1]; oral 12.5 mg/kg daily, day 0
  Flea Control: NC
[1]; oral 12.5 mg/kg daily, day 2
  Flea Control: PC
[1]; oral 12.5 mg/kg daily, day 3
  Flea Control: PC
[1]; oral 12.5 mg/kg daily, day 4
  Flea Control: PC
[1]; oral 12.5 mg/kg daily, day 7
  Flea Control: 100 (100% Control)
[1]; oral 12.5 mg/kg, another dog, after 7 days
  Flea Control: complete control
[1]; oral 12.5 mg/kg, one dog, after 24 hours
  Flea Control: complete control
[1]; oral 50 mg/kg daily, day 0
  Flea Control: NC
[1]; oral 50 mg/kg daily, day 1
  Flea Control: 100 (100% Control)
[1]; oral 50 mg/kg, after 24 hours
  Flea Control: complete flea control
[1]; oral .78 mg/kg daily, day 0
  Flea Control: NC
[1]; oral .78 mg/kg daily, day 1
  Flea Control: NC
[1]; oral .78 mg/kg daily, day 2
  Flea Control: NC
[1]; oral .78 mg/kg daily, day 3
  Flea Control: NC
[1]; oral .78 mg/kg daily, day 4
  Flea Control: NC
[1]; oral .78 mg/kg daily, day 7
  Flea Control: NC
[1]; oral .78 mg/kg daily, day 8
  Flea Control: NC
[2]; week 0
  Percent of Dogs with Control: 100%
  No. of Dead Fleas Recovered in 48 Hrs.: 18 and 44 and 41 and 34 and 26 and 38 and 28 and 50 and 21 and 22 and 40 and 24 and 25
[2]; week 1
  Percent of Dogs with Control: 100%
  No. of Dead Fleas Recovered in 48 Hrs.: 30 and 44 and 53 and 43 and 14 and 37 and 26 and 74 and 49 and 57 and 33 and 31 and 38
[2]; week 2
  Percent of Dogs with Control: 100%
  No. of Dead Fleas Recovered in 48 Hrs.: 54 and 39 and 55 and 40 and 27 and 64 and 31 and 44 and 38 and 32 and 43 and 50 and 42
[2]; week 3
  Percent of Dogs with Control: 100%
  No. of Dead Fleas Recovered in 48 Hrs.: 37 and 36 and 47 and 43 and 35 and 42 and 33 and 63 and 44 and 60 and 29
[2]; week 4
  Percent of Dogs with Control: 92.5%
  No. of Dead Fleas Recovered in 48 Hrs.: 43 and 46 and 48 and 25 and 8 and 21 and 35 and 61 and 24 and 34 and 6 and 26 and 42
[2]; week 5
  Percent of Dogs with Control: 80%
  No. of Dead Fleas Recovered in 48 Hrs.: 35 and 63 and 48 and 16 and 5 and 21 and 11 and 36 and 14 and 46 and 39
[2]; week 6
  Percent of Dogs with Control: 45%
  No. of Dead Fleas Recovered in 48 Hrs.: 5 and 49 and 63 and 10 and 3 and 1 and 23 and 19 and 6 and 7 and 27 and 35
[2]; Combination of Test 1 & 2, week 0, of 40
  Number of Dogs on Which Fleas were Controlled: 40 dogs
[2]; Combination of Test 1 & 2, week 1, of 40
  Number of Dogs on Which Fleas were Controlled: 40 dogs
[2]; Combination of Test 1 & 2, week 2, of 40
  Number of Dogs on Which Fleas were Controlled: 40 dogs
[2]; Combination of Test 1 & 2, week 3, of 40
  Number of Dogs on Which Fleas were Controlled: 40 dogs
[2]; Combination of Test 1 & 2, week 4, of 40
  Number of Dogs on Which Fleas were Controlled: 37 dogs
[2]; Combination of Test 1 & 2, week 5, of 40
  Number of Dogs on Which Fleas were Controlled: 32 dogs
[2]; Combination of Test 1 & 2, week 6, of 40
  Number of Dogs on Which Fleas were Controlled: 18 dogs
[2]; Experiment 1, week 0, of 20
  Number of Dogs on Which Fleas were Controlled: 20 dogs
[2]; Experiment 1, week 1, of 20
  Number of Dogs on Which Fleas were Controlled: 20 dogs
[2]; Experiment 1, week 2, of 20
  Number of Dogs on Which Fleas were Controlled: 20 dogs
[2]; Experiment 1, week 3, of 20
  Number of Dogs on Which Fleas were Controlled: 20 dogs
[2]; Experiment 1, week 4, of 20
  Number of Dogs on Which Fleas were Controlled: 17 dogs
[2]; Experiment 1, week 5, of 20
  Number of Dogs on Which Fleas were Controlled: 14 dogs
[2]; Experiment 1, week 6, of 20
  Number of Dogs on Which Fleas were Controlled: 5 dogs
[2]; Experiment 2, week 0, of 20
  Number of Dogs on Which Fleas were Controlled: 20 dogs
[2]; Experiment 2, week 1, of 20
  Number of Dogs on Which Fleas were Controlled: 20 dogs
[2]; Experiment 2, week 2, of 20
  Number of Dogs on Which Fleas were Controlled: 20 dogs
[2]; Experiment 2, week 3, of 20
  Number of Dogs on Which Fleas were Controlled: 20 dogs
[2]; Experiment 2, week 4, of 20
  Number of Dogs on Which Fleas were Controlled: 20 dogs
[2]; Experiment 2, week 5, of 20
  Number of Dogs on Which Fleas were Controlled: 18 dogs
[2]; Experiment 2, week 6, of 20
  Number of Dogs on Which Fleas were Controlled: 13 dogs
[2]; Test 1, week 0, control 6.2
  Average Dead in Treated: 31.5
[2]; Test 1, week 2, control 4.8
  Average Dead in Treated: 40.4
[2]; Test 1, week 6, control 3.2
  Average Dead in Treated: 18.0
[2]; Test 2, week 0, control 11.8
  Average Dead in Treated: 43.5
[3]
  toxicity: substantially non-toxic
